Source: ChEMBL document CHEMBL1138909, “Structure-activity studies of oxazolidinone analogs as RNA-binding agents” (Bioorg Med Chem Lett, 2006)
Activity calls are given as the source filed them. No cut-off for these calls is given here.

Columns and labels:
Type in all cases: nucleic-acid assay
Nucleic Acid [1] = assay: Binding activity at antiterminator RNA AM1A relative to methyl 2-((4R,5S)-4-benzyl-2-oxo-5-((2-phenylacetoxy)methyl)oxazolidin-3-yl)benzoate after 10 mins
Nucleic Acid [2] = assay: Binding activity at antiterminator RNA AM1A(C11U) after 10 mins
Nucleic Acid [3] = assay: Binding activity at antiterminator RNA AM1A after 10 mins
Nucleic Acid [4] = assay: Binding activity at antiterminator RNA AM1A(C11U) after 120 mins
Nucleic Acid [5] = assay: Binding activity at antiterminator RNA AM1A upto 200 uM after 10 mins
Nucleic Acid [6] = assay: Binding activity at antiterminator RNA AM1A(C11U) upto 200 uM after 10 mins

Row | SMILES | Activity (Nucleic Acid [1]) | Activity (Nucleic Acid [2]) | further results
1 | COc1ccc(N2C(=O)O[C@H](COC(=O)Cc3ccccc3)[C@H]2CCCc2ccccc2)cc1 | 0.75 | – | –
2 | COC(=O)c1ccccc1N1C(=O)O[C@H](COC(=O)Cc2ccccc2)[C@H]1CCCc1ccccc1 | 0.79 | 1.12 | –
3 | CCCCCCCC(=O)OC[C@H]1OC(=O)N(c2ccc(OC)cc2)[C@@H]1CCCc1ccccc1 | 0.65 | 0.72 | –
4 | COC(=O)c1ccccc1N1C(=O)O[C@H](COC(=O)C2CCCCC2)[C@H]1CC1CCCCC1 | 0.61 | 0.8 | –
5 | CCCCN1C(=O)O[C@H](COC(=O)Cc2ccccc2)[C@H]1Cc1ccccc1 | 0.48 | 0.36 | –
6 | O=C(Cc1ccccc1)OC[C@H]1OC(=O)N[C@@H]1Cc1ccccc1 | – | – | Kd (Nucleic Acid [2]): 125 µM; Kd (Nucleic Acid [3]): 9 µM
7 | CCCCN1C(=O)O[C@H](COC(=O)C2CCCCC2)[C@H]1Cc1ccccc1 | 0.48 | 0.59 | –
8 | CCCCCCC(=O)OC[C@H]1OC(=O)N[C@@H]1Cc1ccccc1 | – | – | Kd (Nucleic Acid [4]): 14.3 µM; Kd (Nucleic Acid [3]): 10 µM
9 | COC(=O)c1ccccc1N1C(=O)O[C@H](COC(=O)Cc2ccccc2)[C@H]1CC1CCCCC1 | 0.39 | 0.77 | –
10 | CCCCN1C(=O)O[C@H](COC(=O)Cc2ccccc2)[C@H]1CCCc1ccccc1 | 0.72 | 0.7 | –
11 | COc1ccc(N2C(=O)O[C@H](COC(=O)Cc3ccccc3)[C@H]2Cc2ccccc2)cc1 | 0.81 | 0.23 | Kd (Nucleic Acid [2]): 25 µM; Kd (Nucleic Acid [3]): 3.4 µM
12 | COC(=O)c1ccccc1N1C(=O)O[C@H](COC(=O)C2CCCCC2)[C@H]1Cc1ccccc1 | 0.64 | 1.19 | –
13 | CCCCCCCC(=O)OC[C@H]1OC(=O)N(c2ccc(OC)cc2)[C@@H]1Cc1ccccc1 | 0.43 | 0.68 | –
14 | CCCCCCCC(=O)OC[C@H]1OC(=O)N(CCCC)[C@@H]1CCCc1ccccc1 | 0.56 | 0.69 | –
15 | COc1ccc(N2C(=O)O[C@H](COC(=O)C3CCCCC3)[C@H]2Cc2ccccc2)cc1 | 0.73 | 0.77 | –
16 | COc1ccc(N2C(=O)O[C@H](COC(=O)C3CCCCC3)[C@H]2CC2CCCCC2)cc1 | 0.61 | 0.82 | –
17 | CCCCN1C(=O)O[C@H](COC(=O)C2CCCCC2)[C@H]1CCCc1ccccc1 | 0.65 | 0.78 | –
18 | COC(=O)c1ccccc1N1C(=O)O[C@H](COC(=O)Cc2ccccc2)[C@H]1Cc1ccccc1 | – | 1.47 | Activity (Nucleic Acid [3]): 1
19 | CCCCCCCC(=O)OC[C@H]1OC(=O)N(c2ccccc2C(=O)OC)[C@@H]1Cc1ccccc1 | 1.19 | 1.06 | –
20 | CCCCCCCC(=O)OC[C@H]1OC(=O)N[C@@H]1Cc1ccccc1 | – | – | Activity (Nucleic Acid [5]): inactive; Activity (Nucleic Acid [6]): inactive
21 | COc1ccc(N2C(=O)O[C@H](COC(=O)Cc3ccccc3)[C@H]2CC2CCCCC2)cc1 | 0.71 | 1.05 | –
22 | COc1ccc(N2C(=O)O[C@H](COC(=O)C3CCCCC3)[C@H]2CCCc2ccccc2)cc1 | 0.64 | 0.7 | –
23 | CCCCCCCC(=O)OC[C@H]1OC(=O)N(c2ccc(OC)cc2)[C@@H]1CC1CCCCC1 | 0.58 | 0.78 | –
24 | CCCCN1C(=O)O[C@H](COC(=O)Cc2ccccc2)[C@H]1CC1CCCCC1 | 0.58 | 0.78 | –
25 | CCCCN1C(=O)O[C@H](COC(=O)C2CCCCC2)[C@H]1CC1CCCCC1 | 0.54 | 0.7 | –
26 | COC(=O)c1ccccc1N1C(=O)O[C@H](COC(=O)C2CCCCC2)[C@H]1CCCc1ccccc1 | 0.71 | 0.78 | –
27 | CCCCCCCC(=O)OC[C@H]1OC(=O)N(c2ccccc2C(=O)OC)[C@@H]1CC1CCCCC1 | 0.47 | 0.97 | –
28 | CCCCCCCC(=O)OC[C@H]1OC(=O)N(c2ccccc2C(=O)OC)[C@@H]1CCCc1ccccc1 | 1.21 | 0.76 | –
29 | CCCCCCCC(=O)OC[C@H]1OC(=O)N(CCCC)[C@@H]1Cc1ccccc1 | 1.16 | 1.37 | –
30 | CCCCCCCC(=O)OC[C@H]1OC(=O)N(CCCC)[C@@H]1CC1CCCCC1 | 0.73 | 1.05 | –
